Results on 44 compounds are retold here after patent US10174038B2, “Compounds and methods for antiviral treatment” (Gilead Sciences, Inc., priority 2012, dated 2019).

Like-named read-outs stand apart in the source and are kept apart here.

For the assay, the system named is RSV strain A2. Nature of the assay: RSV antiviral activity, in vitro cytoprotection assay in Hep2 cells. As to conditions: for inhibition at 0.5 µM: human respiratory syncytial virus. It is filed as cell-based, Respiratory Syncytial Virus (RSV). The protocol:
Antiviral activity against RSV was determined using an in vitro cytoprotection assay in Hep2 cells. […] The method used was similar to methods previously described in published literature (Chapman et al., Antimicrob Agents Chemother. 2007, 51(9):3346-53.)
Hep2 cells were obtained from ATCC (Manassas, Va.) and maintained in MEM media supplemented with 10% fetal bovine serum and penicillin/streptomycin. Cells were passaged twice a week and kept at subconfluent stage. Commercial stock of RSV strain A2 (Advanced Biotechnologies, Columbia, Md.) was titered before compound testing to determine the appropriate dilution of the virus stock that generated desirable cytopathic effect in Hep2 cells.
For antiviral tests, Hep2 cells were seeded into 96-well plates 24 hours before the assay at a density of 3,000 cells/well. On a separate 96 well plate, compounds to be tested were serially diluted in cell culture media. Eight concentrations in 3-fold serial dilution increments were prepared for each tested compound and 100 uL/well of each dilution was transferred in duplicate onto plates with seeded Hep2 cells. Subsequently, appropriate dilution of virus stock previously determined by titration was prepared in cell culture media and 100 uL/well was added to test plates containing cells and serially diluted compounds. Each plate included three wells of infected untreated cells and three wells of uninfected cells that served as 0% and 100% virus inhibition control, respectively. Following the infection with RSV, testing plates were incubated for 4 days in a tissue culture incubator. After the incubation, RSV-induced cytopathic effect was determined using a Cell TiterGlo reagent (Promega, Madison, Wis.) followed by a luminescence read-out. The percentage inhibition was calculated for each tested concentration relative to the 0% and 100% inhibition controls and the EC50 value for each compound was determined by non-linear regression as a concentration inhibiting the RSV-induced cytopathic effect by 50%. Ribavirin (purchased from Sigma, St. Louis, Mo.) was used as a positive control for antiviral activity.
Compounds were also tested for antiviral activity against RSV in Hep2 cells using a 384 well format. Compounds were diluted in DMSO using a 10-step serial dilution in 3-fold increments via automation in 4 adjacent replicates each. Eight compounds were tested per dilution plate. 0.4 uL of diluted compounds were then stamped via Biomek into 384-well plates (Nunc 142761 or 164730 w/lid 264616) containing 20 μL of media (Mediatech Inc. MEM supplemented with Glutamine, 10% FBS and Pen/Strep). DMSO and a suitable positive control compound, such as 80 μM GS-329467 or 10 μM 427346 was used for the 100% and 0% cell killing controls, respectively.
Hep2 cells (1.0×10^5 cells/ml) were prepared as above in batch to at least 40 mls excess of the number of sample plates (8 mls cell mix per plate) and infected with vendor supplied (ABI) RSV strain A2 to arrive at an MOI of 1:1000 (virus:cell #) or 1:3000 (vol virus:cell vol). Immediately after addition of virus, the RSV infected Hep2 cell suspension was added to each stamped 384-well plate at 20 μl per well using a uFlow dispenser, giving a final volume of 40 μL/well, each with 2000 infected cells. The plates were then incubated for 5 days at 37° C. and 5% CO2. Following incubation, the plates were equilibrated to room temperature in a biosafety cabinet hood for 1.5 hrs and 40 μL of Cell-Titer Glo viability reagent (Promega) was added to each well via uFlow. Following a 10-20 minute incubation, the plates were read using an EnVision or Victor Luminescence plate reader (Perkin-Elmer). The data was then uploaded and analyzed on the Bioinformatics portal under the RSV Cell Infectivity and 8-plate EC50-Hep2-384 or 8-plate EC50-Hep2-Envision protocols. […]

The mark [1] stands for this setting: HEp-2, 0.5 μM compound, RSV-induced cytopathic effect in Hep2 cells, % inhibition calculated from fitted 4-parameter dose response curve, normalized to 0% and 100%, read-out: Percent inhibition at 0.5 μM.

As a reminder, the inhibition is the percentage by which the read-out fell short of the control. With `CN(C)c1cc(N2CCOCC2)n2nc([C@@H]3CCCCN3C(=O)c3cc(Cl)ccc3NS(C)(=O)=O)cc2n1` [Compound 92], the inhibition at 0.5 µM under setting [1] is 98%.
As for `CC(=O)Nc1sccc1C(=O)N1CCCC[C@H]1c1cc2nc(N3CC[C@H](N)C3)c(C)cn2n1` [Compound 13], the inhibition at 0.5 µM under setting [1] was 98%.
On to `Cc1cn2nc([C@@H]3CCCCN3C(=O)c3cc(Cl)ccc3CNS(C)(=O)=O)cc2nc1N1CC[C@H](N)C1` [Compound 36], for which the inhibition at 0.5 µM under setting [1] is 100%.
On to `Cc1ccc(NS(C)(=O)=O)c(C(=O)N2CCCC[C@H]2c2cn3nc(N4CC[C@H](N)C4)c(C)cc3n2)c1` [Compound 115], for which the inhibition at 0.5 µM under setting [1] is 100%.
Turning to `Cc1ccc(NS(C)(=O)=O)c(C(=O)N2CCCC[C@H]2c2cc3nc(C)nc(C)n3n2)c1` [Compound 103], under setting [1], the inhibition at 0.5 µM is 27%.
`CS(=O)(=O)Nc1ccc(Cl)cc1C(=O)N1CCCC[C@H]1c1cc2nc(N3CCC3)cc(NCCN)n2n1` [Compound 20]: under “HEp-2, read-out: Percent inhibition at 0.5 μM”, the inhibition at 0.5 µM turned out to be 100%.
As for `Cc1cc(C2CC2)nc2cc([C@@H]3CCCCN3C(=O)c3c(NS(C)(=O)=O)cccc3C(F)(F)F)nn12` [Compound 47], under setting [1], the inhibition at 0.5 µM was 99%.
Regarding `CS(=O)(=O)Nc1ccc(Cl)cc1C(=O)N1CCCC[C@H]1c1cn2nc(N3C[C@@H](C#N)[C@@H](O)C3)ccc2n1` [Compound 118], the inhibition at 0.5 µM under setting [1] was 100%.
As to `Cc1cn2nc([C@@H]3CCCCN3C(=O)C(NS(C)(=O)=O)c3ccccc3Cl)cc2nc1N1C[C@@H](C#N)[C@@H](O)C1` (some centres unmarked) [Compound 22], the inhibition at 0.5 µM under setting [1] was 100%.
On the same count and under the same terms, the result for `Cc1cccc(NS(C)(=O)=O)c1C(=O)N1CCCC[C@H]1c1cc2nc(C3CC3)cc(C)n2n1` [Compound 45] reads 100%; that for `Cc1ccc(NS(C)(=O)=O)c(C(=O)N2CCCC[C@H]2c2cc3nc(C4CC4)c(C)cn3n2)c1` [Compound 73], 100%; that for `Cc1cn2nc([C@@H]3CCCCN3C(=O)c3cc4ccccc4[nH]3)cc2nc1N1CC[C@H](N)C1` [Compound 17], 96%.
For `COC(=O)N[C@H](C(=O)N1CCCC[C@H]1c1cc2nc(N3CC[C@H](N)C3)c(C)cn2n1)C1CC1` [Compound 102], the inhibition at 0.5 µM under setting [1] is 99%.
Take `Cc1cn2nc([C@@H]3CCCCN3C(=O)C(NS(C)(=O)=O)c3ccccc3F)cc2nc1N1CC[C@H](N)C1` (some centres unmarked) [Compound 100]: the inhibition at 0.5 µM under setting [1] is 100%.
`Cc1cn2nc([C@@H]3CCCCN3C(=O)c3cc(Cl)ccc3NS(C)(=O)=O)cc2nc1N1CC(C#N)C1` [Compound 97]: under setting [1], the inhibition at 0.5 µM is 97%.
As to `Cc1cccnc1C(=O)N1CCCC[C@H]1c1cc2nc(N3CC[C@H](N)C3)c(C)cn2n1` [Compound 6], the inhibition at 0.5 µM under setting [1] is 100%.
`Cc1cn2nc([C@@H]3CCCCN3C(=O)c3cc(Cl)ccc3NS(C)(=O)=O)cc2nc1N[C@@H](C)CO` [Compound 2]: under setting [1], the inhibition at 0.5 µM is 97%.
Turning to `Cc1cc(C2CC2)nc2cc([C@@H]3CCCCN3C(=O)c3ccccc3NS(C)(=O)=O)nn12` [Compound 46], the inhibition at 0.5 µM under setting [1] was 97%.
As for `CNc1c(C)c(C)nc2cc([C@@H]3CCCCN3C(=O)c3cc(F)cc(Cl)c3NS(C)(=O)=O)nn12` [Compound 24], the inhibition at 0.5 µM under setting [1] was 91%.
On to `Cc1ccncc1C(=O)N1CCCC[C@H]1c1cc2nc(N3CC[C@H](N)C3)c(C)cn2n1` [Compound 7], for which the inhibition at 0.5 µM under setting [1] was 100%.
For the compound `COc1ccc(C)cc1C(=O)N1CCCC[C@H]1c1cc2nc(N3CC[C@H](N)C3)c(C)cn2n1` [Compound 8], the inhibition at 0.5 µM under setting [1] is 100%.
On the same count and under the same terms, then `Cc1cc(NS(C)(=O)=O)c(C(=O)N2CCCC[C@H]2c2cc3nc(N4CC[C@H](N)C4)c(C)cn3n2)s1` [Compound 12], with 100%.
`O=C(c1cc(Cl)ccc1NS(=O)(=O)CC(F)(F)F)N1CCCC[C@H]1c1cc2nc(N3CCC3)cc(N3CCNCC3)n2n1` [Compound 55]: the inhibition at 0.5 µM under setting [1] is 98%.
On to `CN1CCN(c2cc(C3CC3)nc3cc([C@@H]4CCCCN4C(=O)c4cc(Cl)ccc4NS(C)(=O)=O)nn23)CC1` [Compound 59], for which the inhibition at 0.5 µM under setting [1] was 92%.
`CS(=O)(=O)Nc1ccc(Cl)cc1C(=O)N1CCCC[C@H]1c1cc2nc(N3CCC3)cc(N3CC[C@@H](N)C3)n2n1` [Compound 71]: the inhibition at 0.5 µM under setting [1] was 100%.
On to `CN[C@@H]1CCN(c2cc(C)n3nc([C@@H]4CCCCN4C(=O)c4cc(Cl)ccc4NS(C)(=O)=O)cc3n2)C1` [Compound 84], for which the inhibition at 0.5 µM under setting [1] was 95%.
For `Cc1cn2nc([C@@H]3CCCCN3C(=O)c3cc(Cl)ccc3NS(C)(=O)=O)cc2nc1N1CC[C@H](CN)C1` [Compound 21], under setting [1], the inhibition at 0.5 µM was 100%.
Turning to `CS(=O)(=O)Nc1ccc(Cl)cc1C(=O)N1CCCC[C@H]1c1cc2nc(N3CCC3)cc(N3CCN[C@@H](CO)C3)n2n1` [Compound 19], the inhibition at 0.5 µM under setting [1] was 100%.
Regarding `CS(=O)(=O)Nc1ccc(Cl)cc1C(=O)N1CCCC[C@H]1c1cc2nc(N3CC(CO)C3)cc(N3CCOCC3)n2n1` [Compound 89], under setting [1], the inhibition at 0.5 µM is 90%.
As for `Cc1cc(C2CC2)nc2cc([C@@H]3CCCCN3C(=O)c3ccc(Cl)c(F)c3NS(C)(=O)=O)nn12` [Compound 31], the “Percent inhibition at 0.5 μM” value (0.5 μM compound, RSV-induced cytopathic effect in Hep2 cells, % inhibition calculated from fitted 4-parameter dose response curve, normalized to 0% and 100%) is 86%.
Regarding `CNC1CCN(c2cc(N3CCOCC3)n3nc([C@@H]4CCCCN4C(=O)c4cc(Cl)ccc4NS(C)(=O)=O)cc3n2)C1` (some centres unmarked) [Compound 94], under setting [1], the inhibition at 0.5 µM is 89%.
On the same count and under the same terms, then `Cc1cc(N(C)CCO)nc2cc([C@@H]3CCCCN3C(=O)c3cc(Cl)ccc3NS(C)(=O)=O)nn12` [Compound 60], with 87%.
As for `O=C(c1ccccc1C(F)(F)F)N1CCCC[C@H]1c1cc2nc(N3CC(O)C3)cc(N3CC(O)C3)n2n1` [Compound 50], the inhibition at 0.5 µM under setting [1] was 100%.
On the same count and under the same terms, then `Cc1cn2nc([C@@H]3CCCCN3C(=O)c3n[nH]c4ccc(F)cc34)cc2nc1N1CC[C@H](N)C1` [Compound 15], with 92%; and `Cc1cc(C2CC2)nc2cc([C@@H]3CCCCN3C(=O)c3cc(Cl)cc(Cl)c3NS(C)(=O)=O)nn12` [Compound 26], with 97%; and `CC(C)OC(=O)Nc1ccc(Cl)cc1C(=O)N1CCCC[C@H]1c1cc2nc(N3CCC3)cc(N3CCN(C(=O)OC(C)(C)C)CC3)n2n1` [Compound 68], with 100%.
As to `Cc1cn2nc([C@@H]3CCCCN3C(=O)c3cc(Cl)ccc3NS(C)(=O)=O)cc2nc1N1CCC[C@H](N)C1` [Compound 88], the inhibition at 0.5 µM under setting [1] was 89%.
With `Cc1cc(N2CC[C@H](N)C2)nn2cc([C@@H]3CCCCN3C(=O)c3cc(Cl)ccc3NS(C)(=O)=O)nc12` [Compound 108], the inhibition at 0.5 µM under setting [1] is 100%.
Still for that read-out and setting: the result for `CS(=O)(=O)Nc1ccc(Cl)cc1C(=O)N1CCCC[C@H]1c1cn2nc(N3CC[C@H](N)C3)ccc2n1` [Compound 117] reads 100%; that for `Cc1ccc(C(=O)N2CCCC[C@H]2c2cc3nc(C4CC4)cc(C)n3n2)c(NS(C)(=O)=O)c1` [Compound 76], 99%.
Turning to `CCc1ccc(NS(C)(=O)=O)c(C(=O)N2CCCC[C@H]2c2cc3nc(C4CC4)cc(N4CCOCC4)n3n2)c1` [Compound 80], the inhibition at 0.5 µM under setting [1] is 99%.
Turning to `C#CC1CCN(c2nc3cc([C@@H]4CCCCN4C(=O)c4cc(Cl)ccc4NS(C)(=O)=O)nn3cc2C)C1` (some centres unmarked) [Compound 41], the inhibition at 0.5 µM under setting [1] was 100%.
In the case of `Cc1cn2nc([C@@H]3CCCCN3C(=O)c3cc(Cl)ccc3NS(C)(=O)=O)cc2nc1N1CC(F)(F)C1` [Compound 98], under setting [1], the inhibition at 0.5 µM was 100%.
As for `Cc1cn2nc([C@@H]3CCCCN3C(=O)c3ncccc3Cl)cc2nc1N1CC[C@H](N)C1` [Compound 18], the inhibition at 0.5 µM under setting [1] is 100%.
